From patent US20190255086A1, “Compositions and Methods for Treating an Infection” (CMPD Licensing, LLC, priority 2015, published 2019)

Assays:
Enterobacter cloacae = experiment: Expected efficacy of anti-bacterial agents against various bacteria (Tables 5 and 6); settings: Gram: neg
Proteus mirabilis = experiment: as above; settings: Gram: neg
Shigella flexneri = experiment: as above; settings: Gram: neg
Yersinia pestis = settings: expected efficacy; Yersinia pestis; Gram: neg
Mycoplasma pneumoniae = experiment: Expected efficacy of anti-bacterial agents against various bacteria (Tables 5 and 6); settings: Gram: n/a
Diphtheroids = experiment: as above; settings: Gram: pos
Streptococcus pyogenes = experiment: as above; settings: Gram: pos
Escherichia coli = experiment: as above; settings: Gram: neg
Pseudomonas aeruginosa = experiment: as above; settings: Gram: neg
Acinetobacter lwoffii = experiment: as above; settings: Gram: neg
Haemophilus ducreyi = experiment: as above; settings: Gram: neg
Chlamydia pneumoniae = experiment: as above; settings: Gram: n/a
Pseudomonas fluorescens = experiment: as above; settings: Gram: neg
Corynebacterium jeikeium = experiment: as above; settings: Gram: pos
[1] = test system: Methicillin resistant staph aureus (MRSA); experiment: as above; settings: Gram: pos
Shigella sonnei = experiment: as above; settings: Gram: neg
Shigella boydii = experiment: as above; settings: Gram: neg
Proteus vulgaris = experiment: as above; settings: Gram: neg
Enterococcus faecium = experiment: as above; settings: Gram: pos
Chlamydia trachomatis = experiment: as above; settings: Gram: n/a
[2] = test system: Klebsiella (Calymmatobacterium) granulomatis; experiment: as above; settings: Gram: neg
[3] = test system: Viridans group streptococci; experiment: as above; settings: Gram: pos
[4] = test system: Staphylococcus aureus (MSSA); experiment: as above; settings: Gram: pos
Streptococcus pneumoniae = experiment: as above; settings: Gram: pos
Bacteroides fragilis = experiment: as above; settings: Gram: anaer
Citrobacter freundii = experiment: as above; settings: Gram: neg
Peptostreptococcus = experiment: as above; settings: Gram: pos
Moraxella catarrhalis = experiment: as above; settings: Gram: neg
Streptococcus agalactiae = experiment: as above; settings: Gram: pos
Enterobacter aerogenes = experiment: as above; settings: Gram: neg
Chlamydia psittaci = settings: expected efficacy; Chlamydia psittaci; Gram: n/a
Acinetobacter baumannii = experiment: Expected efficacy of anti-bacterial agents against various bacteria (Tables 5 and 6); settings: Gram: neg
Enterobacter sakazakii = experiment: as above; settings: Gram: neg
Enterococcus faecalis = experiment: as above; settings: Gram: pos
Clostridium difficile = experiment: as above; settings: Gram: anaer
Neisseria gonorrhoeae = experiment: as above; settings: Gram: neg
Citrobacter diversus = experiment: as above; settings: Gram: neg
Vibrio cholerae = experiment: as above; settings: Gram: neg
Klebsiella oxytoca = experiment: as above; settings: Gram: neg
Shigella dysenteriae = experiment: as above; settings: Gram: neg
Bordetella pertussis = experiment: as above; settings: Gram: neg
Campylobacter jejuni = experiment: as above; settings: Gram: neg
Klebsiella pneumoniae = experiment: as above; settings: Gram: neg
Neisseria meningitidis = experiment: as above; settings: Gram: neg
[5] = test system: Acinetobacter calcoaceticus; experiment: as above; settings: Gram: neg
[6] = test system: Corynebacterium urealyticum; experiment: as above; settings: Gram: pos
Legionella pneumophila = settings: expected efficacy; Legionella pneumophila; Gram: neg
Clostridium perfringens = settings: expected efficacy; Clostridium perfringens; Gram: anaer
Serratia marcescens = experiment: Expected efficacy of anti-bacterial agents against various bacteria (Tables 5 and 6); settings: Gram: neg
[7] = test system: Staphylococcus epidermidis; experiment: as above; settings: Gram: pos
Haemophilus influenzae = experiment: as above; settings: Gram: neg

Measured: Efficacy of various antibiotic agents

NC[C@H]1O[C@H](O[C@H]2[C@H](O)[C@@H](O[C@H]3O[C@H](CO)[C@@H](O)[C@H](N)[C@H]3O)[C@H](N)C[C@@H]2N)[C@H](N)C[C@@H]1O [Tobramycin]
yes: Enterobacter cloacae | Proteus mirabilis | Shigella flexneri | Yersinia pestis | Escherichia coli | Pseudomonas aeruginosa | Haemophilus ducreyi | Pseudomonas fluorescens | Shigella sonnei | Shigella boydii | Proteus vulgaris | [2] | Citrobacter freundii | Moraxella catarrhalis | Enterobacter aerogenes | Enterobacter sakazakii | Citrobacter diversus | Klebsiella oxytoca | Shigella dysenteriae | Campylobacter jejuni | Klebsiella pneumoniae | Serratia marcescens | Haemophilus influenzae
no: all other assays above
